Laboratory results: US20250325491A1, “POLYVALENT MOLECULE BASED LIPID NANOPARTICLES FOR NUCLEIC ACID DELIVERY” (Bio-TRIP B.V., priority 2022, published 2025)

How the values were obtained:
C57BL/6 mice = experiment: In vivo Firefly luciferase expression; settings: 0.5 mg/kg Firefly luciferase mRNA in aNP, bolus injection, 16 hours, two animals (FIG. 16)
Method: After 16 hours, the animals were sacrificed and the liver, spleen and femur collected. Organs were processed to yield single cell suspensions. 1/10th of the liver was cut into small pieces, incubated for 15 min, 37° C., 50 RPM with 5 mL liberase solution. Next, the digested liver was put through a 70 μm strainer and collected in a 50 mL falcon tube. After washing with 1×PBS, the cells was resuspended in 15 mL 1×PBS. 1/10th of the spleen was cut into small pieces and put through a 70 μm strainer and collected in a 50 mL falcon tube. After washing with 1×PBS, 1 mL of lysis buffer (BD Pharm Lyse™, cat #555899, diluted 10 times in diH2O) was added and incubated for 4 minute at room temperature. The cells were washed with 1×PBS and resuspended in 15 mL 1×PBS. Both ends of the femur were broken. The bone marrow cells were flushed from the inside of the bone with 10 mL 1×PBS through a 70 μm strainer and collected in a 50 mL falcon tube. The cells were centrifugated and 1 mL lysis buffer (BD Pharm Lyse™, cat #555899, diluted 10 times in diH2O) was added to the pellet and incubated for 1 minute at room temperature. […] All cell suspensions were counted and 500000 cells were seeded in a V-bottom plate. […] 40 μL was transferred to a white 96-well plate and luminescence was measured using the following settings: Settle time: 1000 ms; Integration time: 500 ms; Open filter.

[1] = mRNA recovery, entrapment and retention by Ribogreen assay; type: physicochemical; settings: mRNA-aNPs containing the polyvalent material; for Retention of mRNA: retention = recovery x entrapment
Method: The Quant-iT RiboGreen assay (Thermo Fisher) was used to quantify the amount of siRNA loaded inside the formulated particles. The assay was performed using a black 96-well plate. The formulation sample with a theoretical siRNA concentration of 133.3 μg/mL, was diluted 200 times in TE buffer (10 mM Tris-HCl, 1 mM, EDTA, pH 7.5 in DEPC-treated water) and with a TE buffer containing 2% Triton™ X-100, in a black 96-well plate to a total volume of 100 μl. The Triton detergent will disrupt the lipid-based nanoparticles; therefore, all siRNA (retained plus unretained) becomes accessible for the Quant-iT RiboGreen reagent. Controls of siRNA of known concentration (28.6 μg/mL) were diluted 53.3 times in both TE buffer and TE buffer containing 2% Triton in a 96-well plate to a total volume of 100 μl. Next, RiboGreen reagent was diluted 200 times with TE buffer and with TE buffer containing Triton. 100 μl of this dilution was added to each well containing sample or control to bring the total volume in the plate to 200 μl. Subsequently, the samples' fluorescence was measured on a Tecan Spark® microplate reader at an excitation wavelength of 480 nm and emission wavelength of 520 nm.
This was done in a similar way as described for determining the siRNA encapsulation efficiency.

[2] = formulation for in vitro experiment (Table S8)
[3] = formulation for in vivo experiment (Table S8)

CCCCCCCCOC(=O)CCN(CCCN(CCCCN(CCCN(CCC(=O)OCCCCCCCC)CCC(=O)OCCCCCCCC)CCCN(CCC(=O)OCCCCCCCC)CCC(=O)OCCCCCCCC)CCCN(CCC(=O)OCCCCCCCC)CCC(=O)OCCCCCCCC)CCC(=O)OCCCCCCCC [Example A2, G1-ACR-nC8-8]
Luminescence intensity of single cell suspensions from liver, spleen and bone marrow (tissue targeting) (C57BL/6 mice): target spleen and bone marrow tissue efficiently | Entrapment of mRNA [1, 2]: 87% | Recovery of mRNA [1, 2]: 27% | Retention of mRNA [1, 2]: 23% | Entrapment of mRNA [1, 3]: 88% | Recovery of mRNA [1, 3]: 57% | Retention of mRNA [1, 3]: 50%
